Results as given in patent US10633388B2, “Pyrazolopyrimidone derivatives and methods of use thereof” (Shanghai Hengrui Pharmaceutical Co., Ltd., priority 2013, dated 2020).
Each block holds one molecule with its values, some of them ahead of it.

Columns and labels:
[1] = Rat pharmacokinetics assay; format: in vivo; settings: both sexes, Sprague-Dawley, plasma, SD rats, oral 10 mg/kg vs i.v. 5 mg/kg, read-out: Oral Bioavailability F
Procedure: Sprague-Dawley (SD) rats were used as test animals. The plasma concentrations at various times were determined by LC/MS/MS after intragastric administration of compounds of Example 2, Example 3, Example 5, Example 9, Example 10, Example 11, and Example 13, and intravenous administration of the compound of Example 11 to the rats. The pharmacokinetic behavior of the present compounds in rats was studied, and the pharmacokinetic features were evaluated.
Thirty-two (32) healthy adult SD rats (half female and half male) were evenly designated into 8 groups (4 for each group). The animals were purchased from Shanghai Super B&K Laboratory Animal Corp. Ltd (laboratory animal production Certificate No. SCXK (HU)2008-0016).
An appropriate amount of sample was weighed, and added with 0.5% CMC-Na to form a 1 mg/ml suspension upon ultrasonic treatment.
Appropriate amounts of drugs were weighed, and dissolved with 0.5 ml DMSO and 0.5 ml of Tween 80. Saline solution was added to the final volume. […]
The content of the test compound in the plasma of rats after administration of the compound by oral gavage was determined by LC/MS/MS.

ectopic endometrium = assay: In vivo pharmacodynamics test in rabbit endometriosis model; design: species or system New Zealand rabbits
Description: Fifteen (15) healthy New Zealand rabbits (female) were evenly designated into 3 groups.
Rabbits were adaptive fed and quarantined for seven days, and subcutaneously injected with 30 g/kg of estradiol benzoate once daily for two days before surgery. When the model was established, rabbits were anesthetized with 3% sodium pentobarbital, and laparotomized sterilely. Then, one side of the uterus was separated and ligated with the uterine mesorectum vessel. Then, a section of the uterus was cut off and put into a warm saline dish, and then dissected longitudinally and the myometrium and endometrium were separated. A section of endometrium (about 0.5 cm by 0.5 cm) was seamed to the abdominal wall rich in blood vessels with the intimal surface facing toward the abdominal cavity. Three weeks after endometrium planting, the rabbits were laparotomized to check graft intimal size. […] Each group was administered by oral gavage once a day in a volume of 5 ml/kg, continuously for 28 days after successful modeling. Ultimately, the rabbit was weighed and the volume of ectopic endometrium was measured to evaluate the effect of the present compound on the endometrial activity.

[2] = Beagle pharmacokinetics assay; format: in vivo; settings: beagles
Procedure: (§1) Beagles were used as test animals. The plasma concentrations at various times were determined by LC/MS/MS after intragastric administration of the compound of Example 11, and intravenous administration of the compound of Example 11 to beagles. The pharmacokinetic behavior of the present compound in beagles was studied, and the pharmacokinetic features were evaluated.
Eight (8) healthy beagles (half female and half male) were evenly designated into 2 groups. The animals were purchased from SuzhouXishan Zhongke Laboratory Animal Corp. Ltd.
An appropriate amount of sample was weighed, and added with 0.5% CMC-Na to form a 1.0 mg/ml suspension upon ultrasonic treatment;
Appropriate amounts of drugs were weighed, and dissolved with 5 ml DMSO and 5 ml of Tween 80. Saline solution was added to the final volume. […]
1.0 ml of blood was sampled from the foreleg vein before, and 0.25, 0.5, 1, 2, 4, 6, 8, 12, and 24 hours after oral administration, collected in a heparinized test tube, and centrifuged at 3500 rpm for 10 minutes to separate the plasma, which was stored at −20° C. […] The content of the test compound in the plasma of beagles after administration of the compound by oral gavage and intravenous injection was determined by LC/MS/MS.

monkey GnRHr = monkey GnRHr (Macaca fascicularis, UniProt A0A2K5WH82); assay: Monkey GnRHr inhibitory activity assay, Fluo-4 calcium signal in stably transfected CHO cells; format: cell-based; settings: GnRH polypeptide stimulation, read-out: IC50, inhibition of the activity of Monkey GnRHr
Procedure: This assay was used to determine the inhibition effect of the present compounds on the activity of monkey GnRHr protein expressed by monkey GnRHr/CHO stably transfected cell lines.
A mammalian expression vector containing the monkey GnRHr gene was transferred into CHO cells by adding Lipofectamine®LTX reagent containing Plus™. Antibiotics were added the next day for screening to pick out the monoclonal cell lines.
The monkey GnRHr/CHO stably transfected cell lines were inoculated in 96-well plates with an inoculation density of 25,000 cells/well. The culture medium was removed the next day, and loading buffer containing Fluo-4 dye was added to the plate ([…]) and incubated for 30 minutes at 37° C. The plate was moved to room temperature and equilibrated for 10 minutes. Each compound was diluted with DMSO to seven concentration gradients of 100 μM, 10 μM, 1 μM, 0.1 μM, 0.01 μM, 0.001 μM, 0.0001 μM. […] After automated addition of 50 μL of GnRH polypeptide stimulant solution, the value was immediately detected at 494/516 […] by a microplate reader (flexstation 3). IC50 values of the compounds were calculated by software from different fluorescence signals at various corresponding concentrations.
The inhibitory activity of the present compounds on monkey GnRHr was determined by the above assay, and IC50 values are shown in Table 1.

[3] = Seven-day toxicokinetic evaluation in rats; format: in vivo, SD rats
Procedure: SD rats were used as test animals. The plasma concentration at various times was determined by LC/MS/MS after administration of the compound of Example 11 (SHR147280) by oral gavage for 7 days. The compound toxicity in rodents was preliminarily assessed according to the potential toxicity reaction and severity level of the body.
Twenty-four (24) healthy adult SD rats (half female and half male) were evenly designated into 4 groups (6 for each group). The animals were purchased from Shanghai SLAC Laboratory Animal Corp. Ltd (laboratory animal production Certificate No. SCXK (HU) 2012-0002).
An appropriate amount of sample was accurately weighed, and added with some 0.5% CMC-Na to form an uniform suspension upon ultrasonicator grinding treatment, and then diluted to the final volume. The test sample solutions on day 1 and day 7 were kept for the determination of administration concentration of toxicokinetics.
Repeat oral doses were 80, 240, and 720 mg/kg, and administration concentrations were 8, 24, and 72 mg/ml respectively. The dosing volume was 10 ml/kg once daily for 7 days.
The blood was sampled on day 1 and day 7 after administration with sampling time before, and 1, 2, 4, 8 and 24 hours after oral administration on day 1, as well as before, and 1, 2, 4, 8, 24 and 48 hours after oral administration on day 7. The blood sample was collected in a heparinized test tube, and centrifuged to separate the plasma, which was stored at −20° C. The content of the test compound in the plasma of rats after administration of the compound by oral gavage was determined by LC/MS/MS.

[4] = Rabbit pharmacokinetics assay; format: in vivo, New Zealand rabbits; settings: rabbits
Procedure: as §1, with “Rabbits” for “Beagles”, “rabbits.” for “beagles.”, “rabbits” for “beagles”
Six (6) healthy New Zealand Rabbits (female) were evenly designated into 2 groups. The animals were purchased from Jie Sijie Corp. Ltd.
An appropriate amount of sample was weighed, and added with 0.5% CMC-Na to form […] suspension upon ultrasonic treatment.
Appropriate amounts of drugs were weighed, and dissolved with 1 ml DMSO and 1 ml of Tween 80. Saline solution was added to the final volume. […]
0.2 ml of blood was sampled before and 5 minutes, 0.25, 0.5, 1, 2, 4, 8, 11, 24 hours after intravenous administration, collected in a heparinized test tube, and centrifuged at 3500 rpm for 10 minutes to separate the plasma, which was stored at −20° C. […] The content of the test compound in the plasma of rabbits after administration of the compound by oral gavage and intravenous injection was determined by LC/MS/MS.

[5] = women with endometriosis, 150 or 250 mg qd, vs leuprorelin depot 3.75 mg sc monthly or placebo; cited from earlier work

Sequence of monkey GnRHr (A0A2K5WH82 1-328): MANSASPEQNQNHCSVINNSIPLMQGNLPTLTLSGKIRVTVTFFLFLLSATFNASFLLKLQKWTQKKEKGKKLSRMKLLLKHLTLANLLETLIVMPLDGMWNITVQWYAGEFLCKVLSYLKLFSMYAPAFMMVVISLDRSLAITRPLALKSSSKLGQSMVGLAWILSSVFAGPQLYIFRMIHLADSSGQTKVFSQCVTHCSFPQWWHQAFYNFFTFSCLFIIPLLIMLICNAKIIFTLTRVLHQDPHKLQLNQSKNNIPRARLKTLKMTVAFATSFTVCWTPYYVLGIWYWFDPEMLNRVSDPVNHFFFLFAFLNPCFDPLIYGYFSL

SMILES: CONC(=O)Nc1ccc(-n2nc3c(c2CN(C)C)c(=O)n(-c2ccc(OC)nn2)c(=O)n3Cc2c(F)cccc2F)cc1 [Example 11, 1-(4-(7-(2,6-difluorobenzyl)-3-((dimethylamino)methyl)-5-(6-methoxypyridazin-3-yl)-4,6-dioxo-4,5,6,7-tetrahydro-2H-pyrazolo[3,4-d]pyrimidin-2-yl)phenyl)-3-methoxyurea]
bioavailability [1]: 76.6%
inhibition for the ectopic endometrial volume (ectopic endometrium; 10 mg/kg oral once daily for 4 weeks): not obvious
growth of ectopic endometrium (ectopic endometrium; 30 mg/kg oral once daily for 4 weeks, vs 0.5% CMC-Na control): significantly inhibited
Clearance rate CL/F ([2]; oral 5 mg/kg): 14.7 ± 4.2 mL/min/kg
bioavailability ([2]; both sexes, beagle, dog, plasma, oral 5 mg/kg vs i.v. 2 mg/kg, read-out: Oral Bioavailability F): 104%
IC50 (monkey GnRHr): 78.6 nM
Death ([3]; both, SD, rat, in vivo, po, 720 mg/kg, 7 days): died on day 7 before dosing
lethal dose ([3]; both, SD, rat, in vivo, po, 7 days): 720 mg/kg
MRT0-∞ ([3]; female, SD, rat, in vivo, po, 240 mg/kg): 9.63 h
safety window: NOAEL dose ratio (toxicological pharmacokinetic dose/pharmacodynamic dose) ([3]; rat 240 mg/kg / rabbit 30 mg/kg, preliminary evaluation): 240/30 = 8
urine indexes ([3]; rat, in vivo): no regularly abnormal changes
Blood biochemistry: ALB (albumin) and ALP (alkaline phosphatase) ([3]; rat, in vivo, 720 mg/kg): significantly decreased
Blood biochemistry: ALT (alanine aminotransferase) ([3]; rat, in vivo, 720 mg/kg): no statistical differences
Blood biochemistry: BUN, CHOL, CREA, TBIL, TP and AST ([3]; rat, in vivo, 720 mg/kg): significantly increased
Hematology: WBC, Neut, Lymph, EO and RET ([3]; rat, in vivo, 720 mg/kg): significantly decreased
Relative organ coefficient of the thymus and spleen ([3]; rat, in vivo, 720 mg/kg): significantly reduced
absolute wet weight of the adrenal gland ([3]; rat, in vivo, 720 mg/kg): significantly increased
absolute wet weight of the thymus, heart, lung and spleen ([3]; rat, in vivo, 720 mg/kg): significantly decreased
food intake ([3]; rat, in vivo, 720 mg/kg): significantly reduced
relative organ coefficient of the brain, liver, lung, kidney, and adrenal gland ([3]; rat, in vivo, 720 mg/kg): significantly increased
potential toxic target organs ([3]; rat, in vivo, po): marrow hematopoietic system, thymus, heart, liver, lung, spleen, adrenal gland, ovary, and digestion system
bioavailability ([4]; female, New Zealand, rabbit, plasma, oral 30 mg/kg vs intravenous injection 5 mg/kg, read-out: Oral Bioavailability F): 92.9%
Apparent volume of distribution Vz/F ([4]; oral 30 mg/kg): 10.719 ± 3.862 L/kg

SMILES: COc1cccc(-c2c(C)n(Cc3c(F)cccc3C(F)(F)F)c(=O)n(C[C@H](NCCCC(=O)O)c3ccccc3)c2=O)c1F [elagolix, Elagolix]
serum estrogen level [5]: lower than that of the leuprorelin treatment group and placebo group

IC50 (monkey GnRHr): 23.2 nM
SMILES: CNC(=O)Nc1ccc(-n2nc3c(c2CN(C)C)c(=O)n(-c2ccc(OC)nn2)c(=O)n3Cc2c(F)cccc2F)cc1 [Example 9, 1-(4-(7-(2,6-difluorobenzyl)-3-((dimethylamino)methyl)-5-(6-methoxypyridazin-3-yl)-4,6-dioxo-4,5,6,7-tetrahydro-2H-pyrazolo[3,4-d]pyrimidin-2-yl)phenyl)-3-methylurea]
